Numbers after ± are expanded uncertainties.
How the values were obtained:
[1] = Liquid; for mass density: 293.15 K, 101.33 kPa
[2] = refractive index (Na D-line) (dimensionless); conditions: 293.15 K; 101.33 kPa; Liquid

mass density [1] | Normal boiling temperature [1] | refractive index [2] | SMILES
723.9 ± 2.4 kg/m3 | 68.40 ± 0.4 °C | – | CC(C)OC(C)C [diisopropyl ether]
736.1 ± 8.8 kg/m3 | 90.08 ± 0.4 °C | 1.3813 ± 0.0064 | CCCOCCC [dipropyl ether]
993 ± 0.74 kg/m3 | 141.2 ± 0.4 °C | 1.3811 ± 0.0017 | CCC(=O)O [propanoic acid]
